Measurements as given in article PMC3427410 (Nature chemical biology, 2012).

Target: T1, FUT7 (Homo sapiens, UniProt Q11130)
T1 sequence (Q11130 1-342): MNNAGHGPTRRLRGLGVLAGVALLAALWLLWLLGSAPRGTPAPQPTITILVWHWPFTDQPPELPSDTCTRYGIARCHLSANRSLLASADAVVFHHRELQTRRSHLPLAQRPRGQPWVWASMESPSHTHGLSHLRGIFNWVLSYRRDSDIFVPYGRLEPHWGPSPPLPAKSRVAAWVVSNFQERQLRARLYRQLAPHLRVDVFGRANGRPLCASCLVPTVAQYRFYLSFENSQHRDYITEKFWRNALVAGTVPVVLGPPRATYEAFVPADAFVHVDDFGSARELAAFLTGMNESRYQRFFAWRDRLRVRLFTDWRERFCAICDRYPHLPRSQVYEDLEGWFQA
Assay: in vitro fucosyltransferase assay, competition with GDP-Fuc transfer
Format: biochemical

Nc1nc2c(ncn2[C@@H]2O[C@H](COP(=O)(O)OP(=O)(O)O[C@H]3O[C@@H](CF)[C@@H](O)[C@@H](O)[C@@H]3O)[C@@H](O)[C@H]2O)c(=O)[nH]1 [compound 6, GDP-6F-Fuc]
IC50: ~2500 nM
